Measured values: US20090181898A1, “ABUSE-RESISTANT A[…]” (SHIRE LLC, priority 2002, published 2009)

Assays:
[1] = test system: rats; test: Horizontal locomotor activity after oral administration; assay type: in vivo, Sprague-Dawley rats; settings: for Peak of activity (Counts per 0.2 h) / Time of Last Count Above 200 per 0.2 h / Total Activity Counts / Total Activity Counts Above Baseline: rats, oral gavage 6 mg/kg
[2] = test system: rats; test: Locomotor activity after intranasal administration with and without CMC; assay type: in vivo, Sprague-Dawley rats
Excerpt: The CMC drug mixtures were suspended thoroughly before each dose was delivered.

[3] = test system: rats; test: Locomotor activity after intravenous administration; assay type: in vivo, Sprague-Dawley rats; settings: rat, 1.0 mg/kg
[4] = Intranasal bioavailability (LC/MS/MS); settings: rat, in vivo, other: intranasal, 3 mg/kg
[5] = Oral bioavailability at escalating doses (LC/MS/MS); settings: rat; for AUC(0-inf): in vivo, po; for F (fraction of intact L-lysine-d-amphetamine absorbed): oral
[6] = test system: stimulant abusers; test: Abuse liability of intravenous L-lysine-d-amphetamine in stimulant abusers; settings: IV
[7] = test system: anesthetized dog; test: Cardiovascular effects following intravenous injection in the anesthetized dog
[8] = rats, intranasal 1.0 mg/kg, 1 h
[9] = L-lysine-d-amphetamine 50 mg, d-amphetamine 20 mg

CC(Cc1ccccc1)NC(=O)C(N)CCCCN [L-lysine-d-amphetamine, 2,6-diaminohexanoic acid-(1-methyl-2-phenylethyl)-amide]
Increase of total HLA activity counts over those induced by d-amphetamine ([1]; rat, oral, 6 mg/kg, three experiments (5, 8, 12 h)): 11-41%
Peak of activity (Counts per 0.2 h) ([1]; 5 h experiment): 318 Counts per 0.2 h
Time of Last Count Above 200 per 0.2 h ([1]; 5 h experiment): 5 h
Total Activity Counts ([1]; 5 h experiment): 6417
Total Activity Counts Above Baseline ([1]; 5 h experiment): 5902
Peak of activity (Counts per 0.2 h) ([1]; 12 h experiment): 256 Counts per 0.2 h
Time of Last Count Above 200 per 0.2 h ([1]; 12 h experiment): 8.6 h
Total Activity Counts ([1]; 12 h experiment): 8423
Total Activity Counts Above Baseline ([1]; 12 h experiment): 7487
Increase in activity over baseline compared to activity for d-amphetamine dosed animals ([2]; rat, intranasal, 1.0 mg/kg): 34%
Percent Amp (activity above baseline relative to Amp) [2, 8]: 35%
Total Activity Counts (1 h) [2, 8]: 408
Total Activity Counts Above Baseline [2, 8]: 237
Total Activity Counts (3 h) [3]: 767
Activity above baseline, Percent Amp ([3]; 3 h): 34%
Total Activity Counts Above Baseline ([3]; 3 h): 463
concentration at 0 h [4]: 0 ng/mL
AUC(0-inf) ([5]; 3 mg/kg): 331 ng·h/mL
AUC(0-inf) ([5]; 6 mg/kg): 1180 ng·h/mL
AUC(0-inf) ([5]; 12 mg/kg): 5170 ng·h/mL
AUC(0-inf) ([5]; 60 mg/kg): 8460 ng·h/mL
F (fraction of intact L-lysine-d-amphetamine absorbed) ([5]; 3 mg/kg): 7.2%
F (fraction of intact L-lysine-d-amphetamine absorbed) ([5]; 6 mg/kg): 12.8%
F (fraction of intact L-lysine-d-amphetamine absorbed) ([5]; 12 mg/kg): 24.6%
F (fraction of intact L-lysine-d-amphetamine absorbed) ([5]; 60 mg/kg): 9.3%
Euphoria or amphetamine-like subjective effects ([6]; 50 mg): did not produce euphoria or amphetamine-like subjective effects
Mean maximum response on Subject Liking VAS vs placebo [6, 9]: not greater than placebo
Subjects (of 9) who would take the treatment again [6, 9]: one
Increase in mean BP ([7]; dog, IV, approximately 30 minutes after injection): 20-50%
DAP % Change ([7]; iv 0.5 mg/kg, Time 0): 0%
DAP diastolic arterial pressure ([7]; iv 0.5 mg/kg, Time 0): 51 mmHg
LVP % Change ([7]; iv 0.5 mg/kg, Time 0): 0%
LVP left ventricular pressure ([7]; iv 0.5 mg/kg, Time 0): 86 mmHg
MAP % Change ([7]; iv 0.5 mg/kg, Time 0): 0%
MAP mean arterial pressure ([7]; iv 0.5 mg/kg, Time 0): 64 mmHg
SAP % Change ([7]; iv 0.5 mg/kg, Time 0): 0%
SAP systolic arterial pressure ([7]; iv 0.5 mg/kg, Time 0): 84 mmHg
DAP % Change ([7]; iv 0.5 mg/kg, Time 5): 3%
DAP diastolic arterial pressure ([7]; iv 0.5 mg/kg, Time 5): 52 mmHg
LVP % Change ([7]; iv 0.5 mg/kg, Time 5): 2%
LVP left ventricular pressure ([7]; iv 0.5 mg/kg, Time 5): 87 mmHg
MAP % Change ([7]; iv 0.5 mg/kg, Time 5): 3%
MAP mean arterial pressure ([7]; iv 0.5 mg/kg, Time 5): 66 mmHg
SAP % Change ([7]; iv 0.5 mg/kg, Time 5): 4%
SAP systolic arterial pressure ([7]; iv 0.5 mg/kg, Time 5): 87 mmHg
DAP % Change ([7]; iv 0.5 mg/kg, Time 15): 1%
DAP diastolic arterial pressure ([7]; iv 0.5 mg/kg, Time 15): 51 mmHg
LVP % Change ([7]; iv 0.5 mg/kg, Time 15): 11%
LVP left ventricular pressure ([7]; iv 0.5 mg/kg, Time 15): 95 mmHg
MAP % Change ([7]; iv 0.5 mg/kg, Time 15): 5%
MAP mean arterial pressure ([7]; iv 0.5 mg/kg, Time 15): 67 mmHg
SAP % Change ([7]; iv 0.5 mg/kg, Time 15): 11%
SAP systolic arterial pressure ([7]; iv 0.5 mg/kg, Time 15): 93 mmHg
DAP % Change ([7]; iv 0.5 mg/kg, Time 25): 8%
DAP diastolic arterial pressure ([7]; iv 0.5 mg/kg, Time 25): 55 mmHg
LVP % Change ([7]; iv 0.5 mg/kg, Time 25): 22%
LVP left ventricular pressure ([7]; iv 0.5 mg/kg, Time 25): 105 mmHg
MAP % Change ([7]; iv 0.5 mg/kg, Time 25): 15%
MAP mean arterial pressure ([7]; iv 0.5 mg/kg, Time 25): 73 mmHg
SAP % Change ([7]; iv 0.5 mg/kg, Time 25): 25%
SAP systolic arterial pressure ([7]; iv 0.5 mg/kg, Time 25): 104 mmHg
DAP % Change ([7]; iv 0.5 mg/kg, Time 30): 14%
DAP diastolic arterial pressure ([7]; iv 0.5 mg/kg, Time 30): 58 mmHg
LVP % Change ([7]; iv 0.5 mg/kg, Time 30): 26%
LVP left ventricular pressure ([7]; iv 0.5 mg/kg, Time 30): 108 mmHg
MAP % Change ([7]; iv 0.5 mg/kg, Time 30): 21%
MAP mean arterial pressure ([7]; iv 0.5 mg/kg, Time 30): 77 mmHg
SAP % Change ([7]; iv 0.5 mg/kg, Time 30): 28%
SAP systolic arterial pressure ([7]; iv 0.5 mg/kg, Time 30): 107 mmHg
DAP % Change ([7]; iv 1.0 mg/kg, Time 0): 0%
DAP diastolic arterial pressure ([7]; iv 1.0 mg/kg, Time 0): 55 mmHg
LVP % Change ([7]; iv 1.0 mg/kg, Time 0): 0%
LVP left ventricular pressure ([7]; iv 1.0 mg/kg, Time 0): 108 mmHg
MAP % Change ([7]; iv 1.0 mg/kg, Time 0): 0%
MAP mean arterial pressure ([7]; iv 1.0 mg/kg, Time 0): 74 mmHg
SAP % Change ([7]; iv 1.0 mg/kg, Time 0): 0%
SAP systolic arterial pressure ([7]; iv 1.0 mg/kg, Time 0): 105 mmHg
DAP % Change ([7]; iv 1.0 mg/kg, Time 5): 15%
DAP diastolic arterial pressure ([7]; iv 1.0 mg/kg, Time 5): 63 mmHg
LVP % Change ([7]; iv 1.0 mg/kg, Time 5): 11%
LVP left ventricular pressure ([7]; iv 1.0 mg/kg, Time 5): 120 mmHg
MAP % Change ([7]; iv 1.0 mg/kg, Time 5): 15%
MAP mean arterial pressure ([7]; iv 1.0 mg/kg, Time 5): 85 mmHg
SAP % Change ([7]; iv 1.0 mg/kg, Time 5): 15%
SAP systolic arterial pressure ([7]; iv 1.0 mg/kg, Time 5): 121 mmHg
DAP % Change ([7]; iv 1.0 mg/kg, Time 15): 33%
DAP diastolic arterial pressure ([7]; iv 1.0 mg/kg, Time 15): 73 mmHg
LVP % Change ([7]; iv 1.0 mg/kg, Time 15): 29%
LVP left ventricular pressure ([7]; iv 1.0 mg/kg, Time 15): 140 mmHg
MAP % Change ([7]; iv 1.0 mg/kg, Time 15): 35%
MAP mean arterial pressure ([7]; iv 1.0 mg/kg, Time 15): 100 mmHg
SAP % Change ([7]; iv 1.0 mg/kg, Time 15): 35%
SAP systolic arterial pressure ([7]; iv 1.0 mg/kg, Time 15): 142 mmHg
DAP % Change ([7]; iv 1.0 mg/kg, Time 25): 75%
DAP diastolic arterial pressure ([7]; iv 1.0 mg/kg, Time 25): 97 mmHg
LVP % Change ([7]; iv 1.0 mg/kg, Time 25): 50%
LVP left ventricular pressure ([7]; iv 1.0 mg/kg, Time 25): 162 mmHg
MAP % Change ([7]; iv 1.0 mg/kg, Time 25): 68%
MAP mean arterial pressure ([7]; iv 1.0 mg/kg, Time 25): 124 mmHg
SAP % Change ([7]; iv 1.0 mg/kg, Time 25): 55%
SAP systolic arterial pressure ([7]; iv 1.0 mg/kg, Time 25): 163 mmHg
DAP % Change ([7]; iv 1.0 mg/kg, Time 30): 32%
DAP diastolic arterial pressure ([7]; iv 1.0 mg/kg, Time 30): 73 mmHg
LVP % Change ([7]; iv 1.0 mg/kg, Time 30): 33%
LVP left ventricular pressure ([7]; iv 1.0 mg/kg, Time 30): 144 mmHg
MAP % Change ([7]; iv 1.0 mg/kg, Time 30): 32%
MAP mean arterial pressure ([7]; iv 1.0 mg/kg, Time 30): 98 mmHg
SAP % Change ([7]; iv 1.0 mg/kg, Time 30): 28%
SAP systolic arterial pressure ([7]; iv 1.0 mg/kg, Time 30): 134 mmHg
DAP % Change ([7]; iv 5.0 mg/kg, Time 0): 0%
DAP diastolic arterial pressure ([7]; iv 5.0 mg/kg, Time 0): 71 mmHg
LVP % Change ([7]; iv 5.0 mg/kg, Time 0): 0%
LVP left ventricular pressure ([7]; iv 5.0 mg/kg, Time 0): 144 mmHg
MAP % Change ([7]; iv 5.0 mg/kg, Time 0): 0%
MAP mean arterial pressure ([7]; iv 5.0 mg/kg, Time 0): 95 mmHg
SAP % Change ([7]; iv 5.0 mg/kg, Time 0): 0%
SAP systolic arterial pressure ([7]; iv 5.0 mg/kg, Time 0): 132 mmHg
DAP % Change ([7]; iv 5.0 mg/kg, Time 5): 0%
DAP diastolic arterial pressure ([7]; iv 5.0 mg/kg, Time 5): 71 mmHg
LVP % Change ([7]; iv 5.0 mg/kg, Time 5): 5%
LVP left ventricular pressure ([7]; iv 5.0 mg/kg, Time 5): 151 mmHg
MAP % Change ([7]; iv 5.0 mg/kg, Time 5): 4%
MAP mean arterial pressure ([7]; iv 5.0 mg/kg, Time 5): 99 mmHg
SAP % Change ([7]; iv 5.0 mg/kg, Time 5): 7%
SAP systolic arterial pressure ([7]; iv 5.0 mg/kg, Time 5): 142 mmHg
DAP % Change ([7]; iv 5.0 mg/kg, Time 15): 39%
DAP diastolic arterial pressure ([7]; iv 5.0 mg/kg, Time 15): 98 mmHg
LVP % Change ([7]; iv 5.0 mg/kg, Time 15): 28%
LVP left ventricular pressure ([7]; iv 5.0 mg/kg, Time 15): 184 mmHg
MAP % Change ([7]; iv 5.0 mg/kg, Time 15): 37%
MAP mean arterial pressure ([7]; iv 5.0 mg/kg, Time 15): 130 mmHg
SAP % Change ([7]; iv 5.0 mg/kg, Time 15): 33%
SAP systolic arterial pressure ([7]; iv 5.0 mg/kg, Time 15): 176 mmHg
DAP % Change ([7]; iv 5.0 mg/kg, Time 25): −3%
DAP diastolic arterial pressure ([7]; iv 5.0 mg/kg, Time 25): 69 mmHg
LVP % Change ([7]; iv 5.0 mg/kg, Time 25): 11%
LVP left ventricular pressure ([7]; iv 5.0 mg/kg, Time 25): 160 mmHg
MAP % Change ([7]; iv 5.0 mg/kg, Time 25): 1%
MAP mean arterial pressure ([7]; iv 5.0 mg/kg, Time 25): 96 mmHg
SAP % Change ([7]; iv 5.0 mg/kg, Time 25): −5%
SAP systolic arterial pressure ([7]; iv 5.0 mg/kg, Time 25): 126 mmHg
DAP % Change ([7]; iv 5.0 mg/kg, Time 30): −1%
DAP diastolic arterial pressure ([7]; iv 5.0 mg/kg, Time 30): 70 mmHg
LVP % Change ([7]; iv 5.0 mg/kg, Time 30): 13%
LVP left ventricular pressure ([7]; iv 5.0 mg/kg, Time 30): 163 mmHg
MAP % Change ([7]; iv 5.0 mg/kg, Time 30): 4%
MAP mean arterial pressure ([7]; iv 5.0 mg/kg, Time 30): 99 mmHg
SAP % Change ([7]; iv 5.0 mg/kg, Time 30): 0%
SAP systolic arterial pressure ([7]; iv 5.0 mg/kg, Time 30): 132 mmHg
